Among the data in US9266883B2, “Ring-fused bicyclic pyridyl derivatives as FGFR4 inhibitors” (Novartis AG, priority 2013, dated 2016) are IC50 values, retold here.

Counter-ions that a name gives are not always drawn.

For test [1], the system named is HuH-7 hepatocellular carcinoma cells. The test is described as follows: Methylene Blue Staining Proliferation Assay (MBS). The following applies: Homo sapiens, Huh-7, 72 h, read-out: HUH7 proliferation (nM) MBS.
Test [2] deals with FGFR4 (GST-FGFR4(388-802)) (Homo sapiens (Human), UniProt P22455). The test is described as follows: In-vitro biochemical kinase assay for FGFR4 (Caliper microfluidic mobility shift). The following applies: read-out: Biochemical FGFR4 IC50.
Chain of FGFR4 (GST-FGFR4(388-802)) (P22455 388-802): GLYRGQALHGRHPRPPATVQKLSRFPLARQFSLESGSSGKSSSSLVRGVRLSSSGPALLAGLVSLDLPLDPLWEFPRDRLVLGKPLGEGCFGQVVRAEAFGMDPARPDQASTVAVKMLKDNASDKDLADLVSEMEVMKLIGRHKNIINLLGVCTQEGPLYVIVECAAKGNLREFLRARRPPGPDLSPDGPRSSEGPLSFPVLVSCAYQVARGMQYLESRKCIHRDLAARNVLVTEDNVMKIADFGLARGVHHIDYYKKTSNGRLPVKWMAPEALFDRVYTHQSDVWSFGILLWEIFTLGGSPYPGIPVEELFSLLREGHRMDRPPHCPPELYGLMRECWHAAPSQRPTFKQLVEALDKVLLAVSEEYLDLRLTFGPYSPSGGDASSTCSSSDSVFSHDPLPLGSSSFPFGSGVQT
The target of test [3] is Tel-FGFR4 (Homo sapiens (Human), UniProt P22455). The test is described as follows: In vitro cellular kinase assay for FGFR4 (BaF3-Tel-FGFR4 cells, MSD capture ELISA of tyrosine phosphorylation). The test is classed as cell-based. Conditions: BaF3-Tel-FGFR4 cells, 1 hour incubation; read-out: Cellular BaF3 FGFR4 IC50.
Chain of Tel-FGFR4 (P22455 other isoform, or with tags, fused parts or gaps): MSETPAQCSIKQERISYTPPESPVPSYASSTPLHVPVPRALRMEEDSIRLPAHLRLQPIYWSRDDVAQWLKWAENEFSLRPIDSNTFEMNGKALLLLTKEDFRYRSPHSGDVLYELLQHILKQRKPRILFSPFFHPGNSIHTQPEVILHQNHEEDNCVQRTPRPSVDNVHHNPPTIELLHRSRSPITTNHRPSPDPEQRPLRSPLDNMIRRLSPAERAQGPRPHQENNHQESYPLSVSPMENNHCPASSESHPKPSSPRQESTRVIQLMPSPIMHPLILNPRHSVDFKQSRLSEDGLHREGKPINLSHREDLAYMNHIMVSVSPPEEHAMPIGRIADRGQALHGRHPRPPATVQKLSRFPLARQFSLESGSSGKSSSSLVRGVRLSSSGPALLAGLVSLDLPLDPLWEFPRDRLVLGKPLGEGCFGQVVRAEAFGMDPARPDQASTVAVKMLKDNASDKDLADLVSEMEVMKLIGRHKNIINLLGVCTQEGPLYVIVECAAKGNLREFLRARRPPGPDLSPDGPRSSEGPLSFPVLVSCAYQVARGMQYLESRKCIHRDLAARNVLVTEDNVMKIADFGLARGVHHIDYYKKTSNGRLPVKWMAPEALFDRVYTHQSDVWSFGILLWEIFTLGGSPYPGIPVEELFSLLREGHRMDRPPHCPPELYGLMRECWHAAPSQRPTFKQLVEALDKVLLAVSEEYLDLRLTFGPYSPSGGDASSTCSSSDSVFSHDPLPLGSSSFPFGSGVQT
Test [4] has as its target FGFR1 (407-822) (Homo sapiens (Human), UniProt P11362). The test is described as follows: In vitro biochemical assay for FGFR1.
Test [5] deals with FGFR2 (406-821) (Homo sapiens (Human), UniProt P21802). The test is described as follows: In vitro biochemical assay for FGFR2.
Chain of FGFR2 (406-821) (P21802 406-821): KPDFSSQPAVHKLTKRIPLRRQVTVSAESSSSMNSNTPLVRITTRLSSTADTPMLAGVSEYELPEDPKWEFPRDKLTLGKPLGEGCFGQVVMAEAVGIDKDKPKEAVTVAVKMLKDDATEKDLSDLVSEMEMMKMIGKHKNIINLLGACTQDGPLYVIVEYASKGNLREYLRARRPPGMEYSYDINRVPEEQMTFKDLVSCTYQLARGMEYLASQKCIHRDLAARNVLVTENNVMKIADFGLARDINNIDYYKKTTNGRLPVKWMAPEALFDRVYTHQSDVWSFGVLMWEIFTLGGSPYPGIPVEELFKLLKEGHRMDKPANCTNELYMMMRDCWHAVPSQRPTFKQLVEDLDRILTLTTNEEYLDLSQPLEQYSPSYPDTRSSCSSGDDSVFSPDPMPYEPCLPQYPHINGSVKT
For test [6], the target named is FGFR3 (411-806) (Homo sapiens (Human), UniProt P22607). Briefly: In vitro biochemical assay for FGFR3.
Chain of FGFR3 (411-806) (P22607 411-806): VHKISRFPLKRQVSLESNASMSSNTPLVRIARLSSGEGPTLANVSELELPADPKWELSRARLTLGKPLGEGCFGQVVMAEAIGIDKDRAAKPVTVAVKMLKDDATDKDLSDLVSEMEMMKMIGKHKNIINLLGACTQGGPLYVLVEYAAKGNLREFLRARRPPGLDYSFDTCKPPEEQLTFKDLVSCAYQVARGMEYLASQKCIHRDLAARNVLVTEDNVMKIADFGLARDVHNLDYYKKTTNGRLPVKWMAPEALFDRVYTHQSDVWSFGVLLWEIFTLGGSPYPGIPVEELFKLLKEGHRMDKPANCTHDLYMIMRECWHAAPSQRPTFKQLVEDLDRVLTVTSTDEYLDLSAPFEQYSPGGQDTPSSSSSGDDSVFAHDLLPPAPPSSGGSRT
The test system of test [7] is HuH-7 hepatocellular carcinoma cells. The test is described as follows: CellTiter Glo (CTG) Assay. The following applies: Homo sapiens, Huh-7, 72 h, read-out: HUH7 proliferation (nM) CTG. For orientation: ATP-based viability assays read luminescence as a measure of living cells.

Chain of FGFR1 (407-822) (P11362 407-822): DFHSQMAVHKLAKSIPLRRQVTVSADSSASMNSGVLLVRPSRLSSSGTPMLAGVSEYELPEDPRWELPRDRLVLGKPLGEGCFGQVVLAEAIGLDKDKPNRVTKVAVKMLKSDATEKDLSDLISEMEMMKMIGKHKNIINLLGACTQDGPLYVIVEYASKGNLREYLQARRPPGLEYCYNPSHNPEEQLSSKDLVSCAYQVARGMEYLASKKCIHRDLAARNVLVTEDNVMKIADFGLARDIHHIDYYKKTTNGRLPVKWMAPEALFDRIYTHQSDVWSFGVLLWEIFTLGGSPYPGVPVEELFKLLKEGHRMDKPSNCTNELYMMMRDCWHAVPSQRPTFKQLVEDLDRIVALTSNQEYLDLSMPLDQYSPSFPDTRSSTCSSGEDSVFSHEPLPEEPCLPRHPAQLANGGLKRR

Consider `O=Cc1ccc2c(n1)N(C(=O)Nc1ccc(Cl)cn1)CCC2` [Example 4, N-(5-chloropyridin-2-yl)-7-formyl-3,4-dihydro-1,8-naphthyridine-1(2H)-carboxamide], for which the IC50 in test [1] is > 3000 nM.
For the compound `CN1CCOC(CNc2cc(NC(=O)N3CCCc4cc(C(F)F)c(C=O)nc43)ncc2C#N)C1` (racemic) [Example 161, N-(5-cyano-4-(((4-methylmorpholin-2-yl)methyl)amino)pyridin-2-yl)-6-(difluoromethyl)-7-formyl-3,4-dihydro-1,8-naphthyridine-1(2H)-carboxamide], the IC50 was 2.5 nM in test [2]; 17.3 nM in test [3]; > 10000 nM in test [4]; > 10000 nM in test [5]; > 10000 nM in test [6]; 200 nM in test [7]. The IC50 in test [1] came out at 126 nM.
Consider `COCCNc1cc(NC(=O)N2CCCc3cc(CN4CCS(=O)(=O)CC4=O)c(C=O)nc32)ncc1C#N` [Example 150, N-(5-cyano-4-((2-methoxyethyl)amino)pyridin-2-yl)-6-((1,1-dioxido-3-oxothiomorpholino)methyl)-7-formyl-3,4-dihydro-1,8-naphthyridine-1(2H)-carboxamide], for which the IC50 in test [2] is 1.2 nM; in test [3] it was 5.8 nM; in test [4] it was > 10000 nM; in test [5] it was > 10000 nM; in test [6] it was > 10000 nM; in test [7], 45.5 nM.
Consider `COCCNc1cc(NC(=O)N2CCCc3cc(CN4CCNCC4=O)c(C=O)nc32)ncc1C#N` [Example 110, N-(5-cyano-4-((2-methoxyethyl)amino)pyridin-2-yl)-7-formyl-6-((2-oxopiperazin-1-yl)methyl)-3,4-dihydro-1,8-naphthyridine-1(2H)-carboxamide hydrochloride], for which the IC50 is 1.4 nM in test [2]; 8.6 nM in test [3]; > 10000 nM in test [4]; > 10000 nM in test [5]; > 10000 nM in test [6]; 59.7 nM in test [7]. In addition, the IC50 in test [1] stood at 46 nM.
Regarding `COCCNc1cc(NC(=O)N2CCCc3cc(CN4CCN(C)CC4=O)c(C=O)nc32)ncc1C#N` [Example 83, N-(5-cyano-4-((2-methoxyethyl)amino)pyridin-2-yl)-7-formyl-6-((4-methyl-2-oxopiperazin-1-yl)methyl)-3,4-dihydro-1,8-naphthyridine-1(2H)-carboxamide], the IC50 in test [7] was determined as 60.9 nM; in test [1] it was 12 nM.
`COCCNc1cc(NC(=O)N2CCCc3cc(CN4CCSCC4=O)c(C=O)nc32)ncc1C#N` [Example 149, N-(5-cyano-4-((2-methoxyethyl)amino)pyridin-2-yl)-7-formyl-6-((3-oxothiomorpholino)methyl)-3,4-dihydro-1,8-naphthyridine-1(2H)-carboxamide]: the IC50 in test [2] is 0.1 nM; in test [3] it was 5.3 nM; in test [4], > 10000 nM; in test [5], > 10000 nM; in test [6], > 10000 nM; in test [7], 77.5 nM.
Consider `CN1CCN(Cc2cc3c(nc2C=O)N(C(=O)Nc2cc(NC45CC(C4)C5)c(C#N)cn2)CCC3)C(=O)C1` [Example 237, N-(4-(bicyclo[1.1.1]pentan-1-ylamino)-5-cyanopyridin-2-yl)-7-formyl-6-((4-methyl-2-oxopiperazin-1-yl)methyl)-3,4-dihydro-1,8-naphthyridine-1(2H)-carboxamide], for which the IC50 in test [2] was 1.9 nM; in test [3], 19 nM; in test [4], > 10000 nM; in test [5], > 10000 nM; in test [6] it was > 10000 nM; in test [7], 18 nM.
On to `CC(C)Oc1cc(NC(=O)N2CCCc3cc(CN(C)C(=O)CO)c(C=O)nc32)ncc1C#N` [Example 141, N-(5-cyano-4-isopropoxypyridin-2-yl)-7-formyl-6-((2-hydroxy-N-methylacetamido)methyl)-3,4-dihydro-1,8-naphthyridine-1(2H)-carboxamide], for which the IC50 was 3.9 nM in test [3]; > 10000 nM in test [4]; > 10000 nM in test [5]; > 10000 nM in test [6]; 36 nM in test [7]; 43 nM in test [1].
With `CC(C)n1cnc2cnc(NC(=O)N3CCCc4cc(CN5CCN(C)CC5=O)c(C=O)nc43)cc21` [Example 216, 7-formyl-N-(1-isopropyl-1H-imidazo[4,5-c]pyridin-6-yl)-6-((4-methyl-2-oxopiperazin-1-yl)methyl)-3,4-dihydro-1,8-naphthyridine-1(2H)-carboxamide], the IC50 is > 10000 nM in test [4]; > 10000 nM in test [5]; > 10000 nM in test [6]; > 3000 nM in test [7]; > 1000 nM in test [1].
Take `COC[C@@H](C)Oc1cc(NC(=O)N2CCCc3cc(CN4C(=O)OC[C@@H]4C)c(C=O)nc32)ncc1C#N` [Example 115, N-(5-cyano-4-(((R)-1-methoxypropan-2-yl)oxy)pyridin-2-yl)-7-formyl-6-(((S)-4-methyl-2-oxooxazolidin-3-yl)methyl)-3,4-dihydro-1,8-naphthyridine-1(2H)-carboxamide]: the IC50 in test [2] worked out at 0.2 nM; in test [3], 3.9 nM; in test [7], 17.5 nM; in test [1], 29 nM.
Take `COCCNc1cc(NC(=O)N2CCCc3cc(CN(CCN(C)C)C(C)=O)c(C=O)nc32)ncc1C#N` [Example 143, N-(5-cyano-4-((2-methoxyethyl)amino)pyridin-2-yl)-6-((N-(2-(dimethylamino)ethyl)acetamido)methyl)-7-formyl-3,4-dihydro-1,8-naphthyridine-1(2H)-carboxamide]: the IC50 in test [2] is 2 nM; in test [3], 16.7 nM; in test [4] it was > 10000 nM; in test [5] it was > 10000 nM; in test [6], > 10000 nM; in test [7], 171 nM. The IC50 in test [1] came out at 104 nM.
For the compound `COC[C@@H](C)Oc1cc(NC(=O)N2CCCc3cc(CN4CCN(C)CC4=O)c(C=O)nc32)ncc1C#N` [Example 205, (R)-N-(5-cyano-4-((1-methoxypropan-2-yl)oxy)pyridin-2-yl)-7-formyl-6-((4-methyl-2-oxopiperazin-1-yl)methyl)-3,4-dihydro-1,8-naphthyridine-1(2H)-carboxamide], the IC50 in test [4] was > 10000 nM; in test [5], > 10000 nM; in test [6] it was > 10000 nM; in test [1], 14 nM.
On to `COCCNc1cc(NC(=O)N2CCCc3cc(-c4cnn(C)c4)c(C=O)nc32)ncc1C#N` [Example 251, N-(5-cyano-4-((2-methoxyethyl)amino)pyridin-2-yl)-7-formyl-6-(1-methyl-1H-pyrazol-4-yl)-3,4-dihydro-1,8-naphthyridine-1(2H)-carboxamide], for which the IC50 amounted to 12.9 nM in test [3], 1340 nM in test [7] and 264 nM in test [1].
In the case of `N#Cc1cnc(NC(=O)N2CCCc3cc(CO)c(C=O)nc32)cc1OC1CN2CCC1CC2` (racemic) [Example 82, N-(5-cyano-4-(quinuclidin-3-yloxy)pyridin-2-yl)-7-formyl-6-(hydroxymethyl)-3,4-dihydro-1,8-naphthyridine-1(2H)-carboxamide], the IC50 in test [2] was 56 nM; in test [3], 83.5 nM; in test [4], > 10000 nM; in test [5] it was > 10000 nM; in test [6] it was > 10000 nM; in test [1], 2010 nM.
As to `CN1CCC(COc2cc(NC(=O)N3CCCc4cc(CO)c(C=O)nc43)ncc2C#N)CC1` [Example 78, N-(5-cyano-4-((1-methylpiperidin-4-yl)methoxy)pyridin-2-yl)-7-formyl-6-(hydroxymethyl)-3,4-dihydro-1,8-naphthyridine-1(2H)-carboxamide], the IC50 is 20 nM in test [2]; 17 nM in test [3]; > 10000 nM in test [4]; > 10000 nM in test [5]; > 10000 nM in test [6]; 279 nM in test [1].
Turning to `CN1CCN(Cc2cc3c(nc2C=O)N(C(=O)Nc2cc(NCCO)c(C#N)cn2)CCC3)C(=O)C1` [Example 197, N-(5-cyano-4-((2-hydroxyethyl)amino)pyridin-2-yl)-7-formyl-6-((4-methyl-2-oxopiperazin-1-yl)methyl)-3,4-dihydro-1,8-naphthyridine-1(2H)-carboxamide], the IC50 in test [2] was 1.2 nM; in test [3], 19.1 nM; in test [4] it was > 10000 nM; in test [5] it was > 10000 nM; in test [6], > 10000 nM; in test [7], 146 nM.
In the case of `CC(C)Oc1cc(NC(=O)N2CCCc3cc(C4CCNCC4)c(C=O)nc32)ncc1C#N` [Example 265, N-(5-cyano-4-isopropoxypyridin-2-yl)-7-formyl-6-(piperidin-4-yl)-3,4-dihydro-1,8-naphthyridine-1(2H)-carboxamide], the IC50 was 3.5 nM in test [2]; 87 nM in test [3]; > 10000 nM in test [4]; > 10000 nM in test [5]; > 10000 nM in test [6]; 404 nM in test [7].
In the case of `COCCNc1cc(NC(=O)N2c3nc(C=O)c(CN4CCN(C)CC4=O)cc3CC[C@@H]2C)ncc1C#N` [Example 228, (S)-N-(5-cyano-4-((2-methoxyethyl)amino)pyridin-2-yl)-7-formyl-2-methyl-6-((4-methyl-2-oxopiperazin-1-yl)methyl)-3,4-dihydro-1,8-naphthyridine-1(2H)-carboxamide], the IC50 in test [2] was 0.6 nM; in test [3], 6.2 nM; in test [4], > 10000 nM; in test [5], > 10000 nM; in test [6] it was > 10000 nM; in test [7], 62 nM.
